Assay results published in patent US10202377B2, “3-(1H-benzo[D]imidazol-2-yl)-1H-pyrazolo[3,4-C]pyridine and therapeutic uses thereof” (Samumed, LLC, priority 2014, dated 2019).
Values belong to the molecule of their own block, whether it stands above or below them.

Legend:
[1] = system: Wnt activity (Sp5-Luc reporter, SW480 colon carcinoma cells); test: Sp5-Luc Wnt reporter gene screening assay in SW480 colon carcinoma cells; settings: Homo sapiens
[2] = system: primary human fibroblasts derived from IPF patients (LL29 cells); test: Inhibition of fibrosis (αSMA staining) in TGF-β1-treated primary human fibroblasts from IPF patients; format: cell-based; settings: Fibroblast, 96 h, TGF-β1 20 ng/mL, 4 days
Method: The above synthesized compounds were screened using primary human fibroblasts (derived from IPF patients) treated with TGF-β1 to determine their ability to inhibit the fibrotic process.
Compound Screening: Each compound was dissolved in DMSO as a 10 mM stock and used to prepare compound source plates. […] LL29 cells were plated at 1,500 cells/well in 80 μl/well F12 medium supplemented with 1% Fetal Bovine Serum. One hour after addition of the cells, TGF-β1 (Peprotech; 20 ng/mL) was added to the plates to induce fibrosis (ref. 1 and 2 above). Wells treated with TGF-β1 and containing DMSO were used as controls. Cells were incubated at 37° C. and 5% CO2 for 4 days. Following incubation for 4 days, SYTOX green nucleic acid stain (Life Technologies [Thermo Fisher Scientific]) was added to the wells at a final concentration of 1 uM and incubated at room temperature for 30 min. Cells were then fixed using 4% formaldehyde (Electron Microscopy Sciences), washed 3 times with PBS followed by blocking and permeabilization using 3% Bovine Serum Albumin (BSA; Sigma) and 0.3% Triton X-100 (Sigma) in PBS. Cells were then stained with antibody specific to α-smooth muscle actin (aSMA; Abcam) (ref. 1 and 2 above) in 3% Bovine Serum Albumin (BSA; Sigma) and 0.3% Triton X-100 (Sigma) in PBS, and incubated overnight at 4° C. […] Dead or apoptotic cells were excluded from analysis based on positive SYTOX green staining. % of total cells positive for αSMA were counted in each well and normalized to the average of 11 wells treated with TGF-β1 on the same plate using Dotmatics' Studies Software. […] The EC50 values are reported.

SMILES: Fc1cccc(-c2cccc3[nH]c(-c4n[nH]c5cnc(-c6cncc(CN7CCC(F)(F)C7)c6)cc45)nc23)c1 [Compound 25, 5-(5-((3,3-Difluoropyrrolidin-1-yl)methyl)pyridin-3-yl)-3-(4-(3-fluorophenyl)-1H-benzo[d]imidazol-2-yl)-1H-pyrazolo[3,4-c]pyridine]
IC50 [1]: 87.3 nM | EC50 [2]: 48 nM

SMILES: CC(C)CC(=O)Nc1cncc(-c2cc3c(-c4nc5c(-c6ccc(F)cc6)cccc5[nH]4)n[nH]c3cn2)c1 [Compound 28, N-(5-(3-(4-(4-Fluorophenyl)-1H-benzo[d]imidazol-2-yl)-1H-pyrazolo[3,4-c]pyridin-5-yl)pyridin-3-yl)-3-methylbutanamide]
IC50 [1]: 90.8 nM | EC50 [2]: 741 nM

SMILES: Fc1ccc(-c2cccc3[nH]c(-c4n[nH]c5cnc(-c6cncc(CN7CCCC7)c6)cc45)nc23)cc1 [Compound 40, 3-(4-(4-Fluorophenyl)-1H-benzo[d]imidazol-2-yl)-5-(5-(pyrrolidin-1-ylmethyl)pyridin-3-yl)-1H-pyrazolo[3,4-c]pyridine]
IC50 [1]: 287 nM | EC50 [2]: 78 nM

SMILES: O=C(Nc1cncc(-c2cc3c(-c4nc5c(-c6ccc(F)cc6)cccc5[nH]4)n[nH]c3cn2)c1)C1CCC1 [Compound 46, N-(5-(3-(4-(4-Fluorophenyl)-1H-benzo[d]imidazol-2-yl)-1H-pyrazolo[3,4-c]pyridin-5-yl)pyridin-3-yl)cyclobutanecarboxamide]
IC50 [1]: 48.9 nM | EC50 [2]: 94 nM

SMILES: Fc1ccc(-c2cccc3[nH]c(-c4n[nH]c5cnc(-c6cncnc6)cc45)nc23)cc1 [Compound 52, 3-(4-(4-Fluorophenyl)-1H-benzo[d]imidazol-2-yl)-5-(pyrimidin-5-yl)-1H-pyrazolo[3,4-c]pyridine]
IC50 [1]: 122 nM | EC50 [2]: 147 nM

SMILES: CC(C)C(=O)Nc1cncc(-c2cc3c(-c4nc5c(-c6ccccc6F)cccc5[nH]4)n[nH]c3cn2)c1 [Compound 61, N-(5-(3-(4-(2-Fluorophenyl)-1H-benzo[d]imidazol-2-yl)-1H-pyrazolo[3,4-c]pyridin-5-yl)pyridin-3-yl)isobutyramide]
IC50 [1]: 81.2 nM | EC50 [2]: 81 nM

SMILES: CC(C)(C)CC(=O)Nc1cncc(-c2cc3c(-c4nc5c(-c6ccccc6F)cccc5[nH]4)n[nH]c3cn2)c1 [Compound 68, N-(5-(3-(4-(2-Fluorophenyl)-1H-benzo[d]imidazol-2-yl)-1H-pyrazolo[3,4-c]pyridin-5-yl)pyridin-3-yl)-3,3-dimethylbutanamide]
IC50 [1]: 164 nM | EC50 [2]: 1670 nM

SMILES: O=C(Nc1cncc(-c2cc3c(-c4nc5c(-c6ccccc6F)cccc5[nH]4)n[nH]c3cn2)c1)C1CCCC1 [Compound 73, N-(5-(3-(4-(2-Fluorophenyl)-1H-benzo[d]imidazol-2-yl)-1H-pyrazolo[3,4-c]pyridin-5-yl)pyridin-3-yl)cyclopentanecarboxamide]
IC50 [1]: 123 nM | EC50 [2]: 1190 nM

SMILES: CC(C)C(=O)Nc1cncc(-c2cc3c(-c4nc5c(-c6cccnc6)cccc5[nH]4)n[nH]c3cn2)c1 [Compound 87, N-(5-(3-(4-(Pyridin-3-yl)-1H-benzo[d]imidazol-2-yl)-1H-pyrazolo[3,4-c]pyridin-5-yl)pyridin-3-yl)isobutyramide]
IC50 [1]: 45.4 nM | EC50 [2]: 124 nM

SMILES: CC(C)Nc1cncc(-c2cc3c(-c4nc5c(-c6cccnc6)cccc5[nH]4)n[nH]c3cn2)c1 [Compound 90, N-Isopropyl-5-(3-(4-(pyridin-3-yl)-1H-benzo[d]imidazol-2-yl)-1H-pyrazolo[3,4-c]pyridin-5-yl)pyridin-3-amine]
IC50 [1]: 13.9 nM | EC50 [2]: 9 nM

SMILES: c1cncc(-c2cccc3[nH]c(-c4n[nH]c5cnc(-c6cncc(CN7CCCCC7)c6)cc45)nc23)c1 [Compound 93, 5-(5-(Piperidin-1-ylmethyl)pyridin-3-yl)-3-(4-(pyridin-3-yl)-1H-benzo[d]imidazol-2-yl)-1H-pyrazolo[3,4-c]pyridine]
IC50 [1]: 534 nM | EC50 [2]: 9 nM

SMILES: c1ccc(CNCc2cncc(-c3cc4c(-c5nc6c(-c7cccnc7)cccc6[nH]5)n[nH]c4cn3)c2)cc1 [Compound 101, N-Benzyl-1-(5-(3-(4-(pyridin-3-yl)-1H-benzo[d]imidazol-2-yl)-1H-pyrazolo[3,4-c]pyridin-5-yl)pyridin-3-yl)methanamine]
IC50 [1]: 183 nM | EC50 [2]: 9 nM

SMILES: Cc1ccncc1-c1cc2c(-c3nc4c(-c5ccncc5)cccc4[nH]3)n[nH]c2cn1 [Compound 109, 5-(4-Methylpyridin-3-yl)-3-(4-(pyridin-4-yl)-1H-benzo[d]imidazol-2-yl)-1H-pyrazolo[3,4-c]pyridine]
IC50 [1]: 42.5 nM | EC50 [2]: 29 nM

IC50 [1]: > 10000 nM
SMILES: O=C(Nc1cncc(-c2cc3c(-c4nc5c(-c6ccncc6)cccc5[nH]4)n[nH]c3cn2)c1)C1CCCCC1 [Compound 126, N-(5-(3-(4-(Pyridin-4-yl)-1H-benzo[d]imidazol-2-yl)-1H-pyrazolo[3,4-c]pyridin-5-yl)pyridin-3-yl)cyclohexanecarboxamide]
EC50 [2]: 9990 nM

SMILES: CCNCc1cncc(-c2cc3c(-c4nc5c(-c6ccccn6)cccc5[nH]4)n[nH]c3cn2)c1 [Compound 136, N-((5-(3-(4-(Pyridin-2-yl)-1H-benzo[d]imidazol-2-yl)-1H-pyrazolo[3,4-c]pyridin-5-yl)pyridin-3-yl)methyl)ethanamine]
IC50 [1]: 177 nM | EC50 [2]: 122 nM

SMILES: O=C(Nc1cncc(-c2cc3c(-c4nc5c(-c6ccccn6)cccc5[nH]4)n[nH]c3cn2)c1)c1ccccc1 [Compound 141, N-(5-(3-(4-(Pyridin-2-yl)-1H-benzo[d]imidazol-2-yl)-1H-pyrazolo[3,4-c]pyridin-5-yl)pyridin-3-yl)benzamide]
IC50 [1]: 411 nM | EC50 [2]: 39 nM

SMILES: CCCCC(=O)Nc1cncc(-c2cc3c(-c4nc5c(-c6ccccn6)cccc5[nH]4)n[nH]c3cn2)c1 [Compound 148, N-(5-(3-(4-(Pyridin-2-yl)-1H-benzo[d]imidazol-2-yl)-1H-pyrazolo[3,4-c]pyridin-5-yl)pyridin-3-yl)pentanamide]
IC50 [1]: 177 nM | EC50 [2]: 225 nM

SMILES: c1ccc(-c2cccc3[nH]c(-c4n[nH]c5cnc(-c6cncc(CNCC7CCCC7)c6)cc45)nc23)nc1 [Compound 154, 1-Cyclopentyl-N-((5-(3-(4-(pyridin-2-yl)-1H-benzo[d]imidazol-2-yl)-1H-pyrazolo[3,4-c]pyridin-5-yl)pyridin-3-yl)methyl)methanamine]
IC50 [1]: 596 nM | EC50 [2]: 9 nM

SMILES: CCC(=O)Nc1cncc(-c2cc3c(-c4nc5c(N6CCCCC6)cccc5[nH]4)n[nH]c3cn2)c1 [Compound 157, N-(5-(3-(4-(Piperidin-1-yl)-1H-benzo[d]imidazol-2-yl)-1H-pyrazolo[3,4-c]pyridin-5-yl)pyridin-3-yl)propionamide]
IC50 [1]: 97.2 nM | EC50 [2]: 99 nM

SMILES: O=C(Nc1cncc(-c2cc3c(-c4nc5c(N6CCCCC6)cccc5[nH]4)n[nH]c3cn2)c1)C1CC1 [Compound 175, N-(5-(3-(4-(Piperidin-1-yl)-1H-benzo[d]imidazol-2-yl)-1H-pyrazolo[3,4-c]pyridin-5-yl)pyridin-3-yl)cyclopropanecarboxamide]
IC50 [1]: 76.9 nM | EC50 [2]: 187 nM

SMILES: FC1(F)CCN(Cc2cncc(-c3cc4c(-c5nc6c(N7CCCCC7)cccc6[nH]5)n[nH]c4cn3)c2)C1 [Compound 181, 5-(5-((3,3-Difluoropyrrolidin-1-yl)methyl)pyridin-3-yl)-3-(4-(piperidin-1-yl)-1H-benzo[d]imidazol-2-yl)-1H-pyrazolo[3,4-c]pyridine]
IC50 [1]: 87.1 nM | EC50 [2]: 9 nM

SMILES: Cc1cn(-c2cccc3[nH]c(-c4n[nH]c5cnc(-c6cncc(NC(=O)C(C)(C)C)c6)cc45)nc23)cn1 [Compound 190, N-(5-(3-(4-(4-Methyl-1H-imidazol-1-yl)-1H-benzo[d]imidazol-2-yl)-1H-pyrazolo[3,4-c]pyridin-5-yl)pyridin-3-yl)pivalamide]
IC50 [1]: 53.5 nM | EC50 [2]: 9 nM

SMILES: Cc1cn(-c2cccc3[nH]c(-c4n[nH]c5cnc(-c6cncc(NC(=O)C7CCC7)c6)cc45)nc23)cn1 [Compound 202, N-(5-(3-(4-(4-Methyl-1H-imidazol-1-yl)-1H-benzo[d]imidazol-2-yl)-1H-pyrazolo[3,4-c]pyridin-5-yl)pyridin-3-yl)cyclobutanecarboxamide]
IC50 [1]: 63.2 nM | EC50 [2]: 9 nM

SMILES: CN1CCN(c2cccc3[nH]c(-c4n[nH]c5cnc(-c6cncc(NC(=O)C7CCCC7)c6)cc45)nc23)CC1 [Compound 229, N-(5-(3-(4-(4-Methylpiperazin-1-yl)-1H-benzo[d]imidazol-2-yl)-1H-pyrazolo[3,4-c]pyridin-5-yl)pyridin-3-yl)cyclopentanecarboxamide]
IC50 [1]: 628 nM | EC50 [2]: 9990 nM

SMILES: CN1CCN(c2cccc3[nH]c(-c4n[nH]c5cnc(-c6cncnc6)cc45)nc23)CC1 [Compound 234, 3-(4-(4-Methylpiperazin-1-yl)-1H-benzo[d]imidazol-2-yl)-5-(pyrimidin-5-yl)-1H-pyrazolo[3,4-c]pyridine]
IC50 [1]: 798 nM | EC50 [2]: 9 nM
